Measurements as given in ChEMBL document CHEMBL2406981, “Novel pyrazoline amidoxime and their 1,2,4-oxadiazole analogues: synthesis and pharmacological screening” (Bioorg Med Chem Lett, 2013).
≈ marks a conversion by molar mass, not a printed value.

System: Aspergillus flavus
Assay: Antimicrobial activity against Aspergillus flavus MTCC 873 at 100 ug/ml after 24 hrs by agar disc diffusion method
Format: functional
Conditions: MTCC 873, 24 h, read-out: DIZ

Row | Compound | zone of inhibition at 100 µg/mL [mm]
1 | COc1ccc(C2=NN(c3ccccc3)C(c3noc(-c4ccccc4OC)n3)C2)cc1 (stereo unspecified) | 12

System: not listed separately
Assay: Antioxidant activity assessed as reducing power of ferric ion at 50 ug/ml after 20 mins
Format: functional
Parameters: scale not given: the % may be the effect or the level left
Conditions: not given

Row | Compound | Activity [%]
2 | COc1ccc(C2=NN(c3ccccc3)C(c3noc(-c4ccccc4OC)n3)C2)cc1 (stereo unspecified) | 24

System: Bacillus cereus
Assay: Antimicrobial activity against Bacillus cereus MTCC 8372 at 50 ug/ml after 24 hrs by agar disc diffusion method
Format: functional
Conditions: MTCC 8372, 24 h, read-out: DIZ

Row | Compound | zone of inhibition at 50 µg/mL [mm]
3 | COc1ccc(C2=NN(c3ccccc3)C(c3noc(-c4ccccc4OC)n3)C2)cc1 (stereo unspecified) | 4

System: Radical scavenging activity
Assay: Antioxidant activity assessed as DPPH free radical scavenging activity at 100 ug/ml after 20 mins
Format: functional
Conditions: not given

Row | Compound | Activity [%]
4 | COc1ccc(C2=NN(c3ccccc3)C(c3noc(-c4ccccc4OC)n3)C2)cc1 (stereo unspecified) | 53

System: Shigella flexneri
Assay: Antimicrobial activity against Shigella flexneri MTCC 1457
Format: functional
Conditions: not given

Row | Compound | MIC [µg/mL]
5 | COc1ccc(C2=NN(c3ccccc3)C(c3noc(-c4ccccc4OC)n3)C2)cc1 (stereo unspecified) | 25 (≈ 58.6 µM)

System: Staphylococcus aureus
Assay: Antimicrobial activity against Staphylococcus aureus MTCC 96 at 100 ug/ml after 24 hrs by agar disc diffusion method
Format: functional
Conditions: MTCC 96, 24 h, read-out: DIZ

Row | Compound | zone of inhibition at 100 µg/mL [mm]
6 | COc1ccc(C2=NN(c3ccccc3)C(c3noc(-c4ccccc4OC)n3)C2)cc1 (stereo unspecified) | 8

System: Staphylococcus aureus
Assay: Antimicrobial activity against Staphylococcus aureus MTCC 96
Format: functional
Conditions: not given

Row | Compound | MIC [µg/mL]
7 | COc1ccc(C2=NN(c3ccccc3)C(c3noc(-c4ccccc4OC)n3)C2)cc1 (stereo unspecified) | 35 (≈ 82.1 µM)

System: Radical scavenging activity
Assay: Antioxidant activity assessed as DPPH free radical scavenging activity at 50 ug/ml after 20 mins
Format: functional
Conditions: not given

Row | Compound | Activity [%]
8 | COc1ccc(C2=NN(c3ccccc3)C(c3noc(-c4ccccc4OC)n3)C2)cc1 (stereo unspecified) | 41

System: Shigella flexneri
Assay: Antimicrobial activity against Shigella flexneri MTCC 1457 at 100 ug/ml after 24 hrs by agar disc diffusion method
Format: functional
Conditions: MTCC 1457, 24 h, read-out: DIZ

Row | Compound | zone of inhibition at 100 µg/mL [mm]
9 | COc1ccc(C2=NN(c3ccccc3)C(c3noc(-c4ccccc4OC)n3)C2)cc1 (stereo unspecified) | 10

System: Aspergillus niger
Assay: Antimicrobial activity against Aspergillus niger MTCC 281 at 50 ug/ml after 24 hrs by agar disc diffusion method
Format: functional
Conditions: MTCC 281, 24 h, read-out: DIZ

Row | Compound | zone of inhibition at 50 µg/mL [mm]
10 | COc1ccc(C2=NN(c3ccccc3)C(c3noc(-c4ccccc4OC)n3)C2)cc1 (stereo unspecified) | 12

System: Escherichia coli
Assay: Antimicrobial activity against Escherichia coli MTCC 724
Format: functional
Conditions: not given

Row | Compound | MIC [µg/mL]
11 | COc1ccc(C2=NN(c3ccccc3)C(c3noc(-c4ccccc4OC)n3)C2)cc1 (stereo unspecified) | 25 (≈ 58.6 µM)

System: Bacillus cereus
Assay: Antimicrobial activity against Bacillus cereus MTCC 8372
Format: functional
Conditions: not given

Row | Compound | MIC [µg/mL]
12 | COc1ccc(C2=NN(c3ccccc3)C(c3noc(-c4ccccc4OC)n3)C2)cc1 (stereo unspecified) | 35 (≈ 82.1 µM)

System: Escherichia coli
Assay: Antimicrobial activity against Escherichia coli MTCC 724 at 100 ug/ml after 24 hrs by agar disc diffusion method
Format: functional
Conditions: MTCC 724, 24 h, read-out: DIZ

Row | Compound | zone of inhibition at 100 µg/mL [mm]
13 | COc1ccc(C2=NN(c3ccccc3)C(c3noc(-c4ccccc4OC)n3)C2)cc1 (stereo unspecified) | 8

System: Klebsiella pneumoniae
Assay: Antimicrobial activity against Klebsiella pneumoniae MTCC 3384
Format: functional
Conditions: not given

Row | Compound | MIC [µg/mL]
14 | COc1ccc(C2=NN(c3ccccc3)C(c3noc(-c4ccccc4OC)n3)C2)cc1 (stereo unspecified) | 25 (≈ 58.6 µM)

System: Shigella flexneri
Assay: Antimicrobial activity against Shigella flexneri MTCC 1457 at 50 ug/ml after 24 hrs by agar disc diffusion method
Format: functional
Conditions: MTCC 1457, 24 h, read-out: DIZ

Row | Compound | zone of inhibition at 50 µg/mL [mm]
15 | COc1ccc(C2=NN(c3ccccc3)C(c3noc(-c4ccccc4OC)n3)C2)cc1 (stereo unspecified) | 6

System: Klebsiella pneumoniae
Assay: Antimicrobial activity against Klebsiella pneumoniae MTCC 3384 at 100 ug/ml after 24 hrs by agar disc diffusion method
Format: functional
Conditions: MTCC 3384, 24 h, read-out: DIZ

Row | Compound | zone of inhibition at 100 µg/mL [mm]
16 | COc1ccc(C2=NN(c3ccccc3)C(c3noc(-c4ccccc4OC)n3)C2)cc1 (stereo unspecified) | 8

System: Klebsiella pneumoniae
Assay: Antimicrobial activity against Klebsiella pneumoniae MTCC 3384 at 50 ug/ml after 24 hrs by agar disc diffusion method
Format: functional
Conditions: MTCC 3384, 24 h, read-out: DIZ

Row | Compound | zone of inhibition at 50 µg/mL [mm]
17 | COc1ccc(C2=NN(c3ccccc3)C(c3noc(-c4ccccc4OC)n3)C2)cc1 (stereo unspecified) | 7

System: Aspergillus flavus
Assay: Antimicrobial activity against Aspergillus flavus MTCC 873 at 50 ug/ml after 24 hrs by agar disc diffusion method
Format: functional
Conditions: MTCC 873, 24 h, read-out: DIZ

Row | Compound | zone of inhibition at 50 µg/mL [mm]
18 | COc1ccc(C2=NN(c3ccccc3)C(c3noc(-c4ccccc4OC)n3)C2)cc1 (stereo unspecified) | 10

System: not listed separately
Assay: Antioxidant activity assessed as reducing power of ferric ion at 100 ug/ml after 20 mins
Format: functional
Parameters: scale not given: the % may be the effect or the level left
Conditions: not given

Row | Compound | Activity [%]
19 | COc1ccc(C2=NN(c3ccccc3)C(c3noc(-c4ccccc4OC)n3)C2)cc1 (stereo unspecified) | 65

System: Bacillus cereus
Assay: Antimicrobial activity against Bacillus cereus MTCC 8372 at 100 ug/ml after 24 hrs by agar disc diffusion method
Format: functional
Conditions: MTCC 8372, 24 h, read-out: DIZ

Row | Compound | zone of inhibition at 100 µg/mL [mm]
20 | COc1ccc(C2=NN(c3ccccc3)C(c3noc(-c4ccccc4OC)n3)C2)cc1 (stereo unspecified) | 8

System: not listed separately
Assay: Antioxidant activity assessed as reducing power of ferric ion at 10 ug/ml after 20 mins
Format: functional
Parameters: scale not given: the % may be the effect or the level left
Conditions: not given

Row | Compound | Activity [%]
21 | COc1ccc(C2=NN(c3ccccc3)C(c3noc(-c4ccccc4OC)n3)C2)cc1 (stereo unspecified) | 11

System: not listed separately
Assay: Antioxidant activity against ferric chloride-induced lipid peroxidation using egg lecithin at 100 ug/ml after 1 hr
Format: functional
Conditions: not given

Row | Compound | inhibition [%]
22 | COc1ccc(C2=NN(c3ccccc3)C(c3noc(-c4ccccc4OC)n3)C2)cc1 (stereo unspecified) | 57

System: not listed separately
Assay: Antioxidant activity against ferric chloride-induced lipid peroxidation using egg lecithin at 10 ug/ml after 1 hr
Format: functional
Conditions: not given

Row | Compound | inhibition [%]
23 | COc1ccc(C2=NN(c3ccccc3)C(c3noc(-c4ccccc4OC)n3)C2)cc1 (stereo unspecified) | 21

System: Radical scavenging activity
Assay: Antioxidant activity assessed as DPPH free radical scavenging activity at 10 ug/ml after 20 mins
Format: functional
Conditions: not given

Row | Compound | Activity [%]
24 | COc1ccc(C2=NN(c3ccccc3)C(c3noc(-c4ccccc4OC)n3)C2)cc1 (stereo unspecified) | 20

System: Aspergillus niger
Assay: Antimicrobial activity against Aspergillus niger MTCC 281 at 100 ug/ml after 24 hrs by agar disc diffusion method
Format: functional
Conditions: MTCC 281, 24 h, read-out: DIZ

Row | Compound | zone of inhibition at 100 µg/mL [mm]
25 | COc1ccc(C2=NN(c3ccccc3)C(c3noc(-c4ccccc4OC)n3)C2)cc1 (stereo unspecified) | 22

System: Aspergillus niger
Assay: Antimicrobial activity against Aspergillus niger MTCC 281
Format: functional
Conditions: not given

Row | Compound | MIC [µg/mL]
26 | COc1ccc(C2=NN(c3ccccc3)C(c3noc(-c4ccccc4OC)n3)C2)cc1 (stereo unspecified) | 10 (≈ 23.4 µM)

System: Escherichia coli
Assay: Antimicrobial activity against Escherichia coli MTCC 724 at 50 ug/ml after 24 hrs by agar disc diffusion method
Format: functional
Conditions: MTCC 724, 24 h, read-out: DIZ

Row | Compound | zone of inhibition at 50 µg/mL [mm]
27 | COc1ccc(C2=NN(c3ccccc3)C(c3noc(-c4ccccc4OC)n3)C2)cc1 (stereo unspecified) | 6

System: not listed separately
Assay: Antiinflammatory activity against heat-induced albumin denaturation at […] preincubated for 15 mins before heat induction by UV-vis spectrophotometer analysis
Format: functional
Conditions: not given

Row | Compound | inhibition [%]
28 | COc1ccc(C2=NN(c3ccccc3)C(c3noc(-c4ccccc4OC)n3)C2)cc1 (stereo unspecified) | 27.1

System: not listed separately
Assay: Antioxidant activity against ferric chloride-induced lipid peroxidation using egg lecithin at 50 ug/ml after 1 hr
Format: functional
Conditions: not given

Row | Compound | inhibition [%]
29 | COc1ccc(C2=NN(c3ccccc3)C(c3noc(-c4ccccc4OC)n3)C2)cc1 (stereo unspecified) | 33

System: Aspergillus flavus
Assay: Antimicrobial activity against Aspergillus flavus MTCC 873
Format: functional
Conditions: not given

Row | Compound | MIC [µg/mL]
30 | COc1ccc(C2=NN(c3ccccc3)C(c3noc(-c4ccccc4OC)n3)C2)cc1 (stereo unspecified) | 15 (≈ 35.2 µM)

System: Staphylococcus aureus
Assay: Antimicrobial activity against Staphylococcus aureus MTCC 96 at 50 ug/ml after 24 hrs by agar disc diffusion method
Format: functional
Conditions: MTCC 96, 24 h, read-out: DIZ

Row | Compound | zone of inhibition at 50 µg/mL [mm]
31 | COc1ccc(C2=NN(c3ccccc3)C(c3noc(-c4ccccc4OC)n3)C2)cc1 (stereo unspecified) | 4
